Results published in PubChem BioAssay AID720570 (Broad Institute, 2013).
Activity calls are given as the source filed them.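 The calls were made as follows: active = cell-killing curve crosses a set limit at a concentration no more than twice the top valid dose; inconclusive = flat curve with a 30 to 70% loss, or a poor fit; inactive = signal rising instead of falling, and the rest.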

Assay: TC71 Ewing sarcoma cell killing, confirmation, luminescence, cherry-picked samples, retest (AID 720570)
Conditions: TC71 Ewing sarcoma viability, CellTiter-Glo ATP, 72 h; at 26 µM (top of the series)

Row | SMILES | activity change, negative = cytotoxicity
1 | CCNC(=O)c1cccc(S(=O)(=O)N2CCCCCC2)c1 | -7.03% (inactive)
2 | COc1cc(/C=N\Nc2nc(-c3ccc(C)cc3)c(NC(C)=O)s2)ccc1O | 4.59% (inactive)
3 | CCOc1ccc(-c2noc(CCC(=O)O)n2)cc1 | 14.8% (inactive)
4 | COc1cccc(S(=O)(=O)N(C)C[C@H]2OCc3cnnn3CCCC(=O)N([C@@H](C)CO)C[C@H]2C)c1 | -0.98% (inactive)
5 | Cc1cc(C(=O)CN2C(=O)c3ccccc3S2(=O)=O)c(C)n1C(C)C | 3.94% (inactive)
6 | CC(C)CN(C(=O)CN1CCOCC1)c1c(N)n(CC(C)C)c(=O)[nH]c1=O | -2.81% (inactive)
7 | CCCCN=C(NNc1ccc(Br)cc1)C(=O)OCC | 4.46% (inactive)
8 | COc1ccc2cc(C(N)=O)/c(=N\NC(=O)c3ccccc3)oc2c1 | 16.9% (inactive)
9 | COC(=O)C[C@@H]1CC[C@@H]2[C@H](COc3ccc(NC(=O)Nc4ccc(C#N)cc4)cc3C(=O)N2C)O1 | 4.12% (inactive)
10 | O=C1C(=O)N(CCS(=O)(=O)c2ccccc2)c2ccccc21 | 2.35% (inactive)
11 | C/C=C/c1ccc([C@H]2[C@@H](CO)N3C(=O)CN(S(=O)(=O)c4cccc(F)c4)C[C@@H]23)cc1 | 13.2% (inactive)
12 | C[C@@H]1CN([C@@H](C)CO)S(=O)(=O)c2ccc(C#Cc3ccncc3)cc2O[C@H]1CN(C)C(=O)C1CCOCC1 | -5.87% (inactive)
13 | COCCOC(=O)N1C(=O)[C@@]2(c3cc(C#CCC(C(=O)OC)C(=O)OC)ccc31)[C@H](c1ccccc1OCCO)N1[C@H](c3ccccc3)[C@H](c3ccccc3)OC(=O)[C@H]1[C@@H]2C(=O)N1CCN(c2ncccn2)CC1 | 16.1% (inactive)
14 | CCCc1nc2ccc(NC(=O)c3cccs3)cc2c(=O)n1Cc1ccccc1Cl | 2.97% (inactive)
15 | OCCN1CCN(C(=S)c2ccc(-c3ccccc3)cc2)CC1 | -0.296% (inactive)
16 | O=C1C(=O)N(Cc2cccs2)c2ccccc21 | 17.4% (inactive)
17 | O=C(O)c1ccc2cc(-c3ccccc3)[nH]c2c1 | 10.6% (inactive)
18 | COc1ccc(/C=C2/SC(=S)N(CCCC(=O)Nc3ccccc3C(=O)O)C2=O)cc1 | 15% (inactive)
19 | Cc1ccc(C(=O)CN2C(=O)c3ccccc3S2(=O)=O)cc1 | 1.85% (inactive)
20 | COc1ccc(CNc2ncc(-c3ccc(F)cc3)n2C)c2ccccc12 | -1.83% (inactive)
21 | O=C(CNC(c1ccccc1)c1ccccc1)Nc1ccccc1-c1ccccc1 | 11.2% (inactive)
22 | c1cncc(-c2ccc([C@@H]3[C@H]4CNC[C@@H]3N4CC3CCOCC3)cc2)c1 | 5.7% (inactive)

Row | SMILES | activity change, negative = cytotoxicity
23 | O=C(Nc1ccc(NC(=O)c2cc3ccccc3o2)cc1)c1ccc2c(c1)OCCO2 | -3.21% (inactive)
24 | C[C@@H]1CN([C@H](C)CO)C(=O)CCCn2nncc2CO[C@H]1CN(C)Cc1ccc(Oc2ccccc2)cc1 | -9.65% (inactive)
25 | Cc1ccsc1C(=O)OCC(=O)NCCC1=CCCCC1 | 9.59% (inactive)
26 | Cc1ccc(Cc2c(-c3ccco3)nc3c(C)cc(Br)cn23)cc1 | -21.5% (inactive)
27 | O=C(O)c1cccc(N/N=C/c2cccs2)c1 | 8.12% (inactive)
28 | C(=C\c1ccc(C2[C@H]3CNC[C@@H]2N3Cc2ccccn2)cc1)/c1ccccc1 (stereo partly drawn) | -7.86% (inactive)
29 | Brc1ccc(CSc2nnc(-c3ccco3)o2)cc1 | 9.85% (inactive)
30 | COC(=O)C[C@@H]1CC[C@@H]2[C@H](COc3ccc(NC(=O)c4ccc(F)cc4)cc3C(=O)N2C)O1 | 15.1% (inactive)
31 | COc1ccc(NC(=O)N(C)[C@H]2C[C@H]3c4[nH]c5ccccc5c4CCN3C(=O)[C@H]2CO)cc1 | 2.92% (inactive)
32 | O=C(NC(=O)c1ccccc1)Nc1ccccc1 | 10.6% (inactive)
33 | CC1=NC(=O)C(N=Nc2cccc(C(=O)O)c2)N1c1ccccc1 (stereo not drawn) | 18.2% (inactive)
34 | N#C[C@H]1[C@H](c2ccc(C#Cc3ccccc3F)cc2)[C@@H](CO)N1C(=O)C1CCOCC1 | -12.8% (inactive)
35 | C[C@H]1CN([C@@H](C)CO)C(=O)c2cccc(NC(=O)c3ccc(-c4nccs4)cc3)c2O[C@@H]1CN(C)Cc1ccc(C(=O)Nc2ccccc2N)cc1 | -30.9% (inactive)
36 | O=C(Nc1ccc(OC(=O)N2CCCCC2)cc1)N1CCOCC1 | 2.31% (inactive)
37 | O=C(/C=C/c1ccc(Cl)cc1Cl)N(Cc1ccc(Cl)cc1)C1CCS(=O)(=O)C1 (stereo not drawn) | 11.6% (inactive)
38 | NC1=CC(=O)C(=O)c2cccnc21 | 1.93% (inactive)
39 | CCc1ccc(/C=C2\SC(=S)N(CCCC(=O)N3CCN(C)CC3)C2=O)cc1 | -30.1% (inactive)
40 | O=C(CCCN1C(=O)/C(=C/c2ccccc2Cl)SC1=S)NNC(=O)c1ccc(Cl)cc1 | -7.21% (inactive)
41 | COC(=O)C[C@@H]1CC[C@@H]2[C@@H](COc3ccc(NC(=O)Cc4cccs4)cc3C(=O)N2C)O1 | 14.1% (inactive)
42 | O=C(O)CN1C(=O)/C(=C\c2ccccc2OCc2ccc(Cl)cc2Cl)SC1=S | 10.8% (inactive)
43 | CC(=O)Nc1ccc(S(=O)(=O)Nc2ccc(N3CCCCC3)cc2)cc1 | -4.73% (inactive)
